# In PubChem BioAssay AID2060483 (Molecular Pharmacology Branch, DTP, NCI, 2025):
# Several values for one entry are separate records, joined by “and”; a condition that tells them apart may be missing. Identical values can stand only once.
# System: K24384-001-R-PDC complex spheroids, viability
# Experiment: Anticancer human tumor K24384-001-R-PDC patient-derived pancreatic adenocarcinoma cell line growth inhibition [GQUAD]
# Conditions: for viability, T/C: stronger effect = lower value
# From the text: DNA G-quadruplex Stabilizer Agents in Combinations in Complex Spheroids
# A high-throughput screen of multi-cell type tumor spheroids was designed to identify active combinations of DNA G-quadruplex stabilizer agents and targeted small molecules. Complex spheroids include a stromal component modeled by human endothelial cells (HUVEC) and fibroblasts modeled by human mesenchymal stem cells (MSCs). The concentration ranges selected for each drug and investigational agent were based upon clinically achievable concentrations if the clinical Cmax of the agent was known.
# Compounds. The drugs and investigational agents: pidnarulex (CX-5461; NSC782164), APTO-253 (NSC789042), BRACO-19 (NSC847499), peposertib (NSC802822), ceralasertib (NSC780249), elimusertib (NSC800525), camonsertib (NSC841442), AZD-1390 (NSC803789), olaparib (NSC753686), talazoparib (NSC767125), ART-558 (NSC835418), sotorasib (NSC818433), MRTX-1133 (NSC836407), SN-38 (NSC673596), topotecan (NSC609699), etoposide (NSC141540), doxorubicin (NSC123127), gemcitabine (NSC613327), 5-fluorouracil (NSC19893), paclitaxel (NSC125973), vemurafenib (NSC761431), panobinostat (NSC761190), R-306465 (JNJ-16241199; NSC773264), adavosertib (NSC754352), TP-3654 (NSC805149), carboplatin (NSC241240), KSQ-4279 (NSC840948), and staurosporine (NSC755774) were obtained from the National Cancer Institute (NCI) Developmental Therapeutics Program Chemical Repository (34). The FDA-approved anticancer drug set is available from the NCI Developmental Therapeutics Program. […] The stock solutions were prepared in dimethyl sulfoxide (DMSO, Sigma-Aldrich, St. Louis, MO, cat. D2650) at 800-fold the tested concentration and stored at -70 degrees C prior to their use. All drugs and investigational agents were tested over a range starting from a high concentration at or near the clinical Cmax and decreasing in half-log increments. If the clinical Cmax for an agent had not been determined, the highest concentration tested was 10 microM.
# 2.3 Cell Culture. All cells were maintained in an incubator at 37 degrees C and 5% CO2 with 95% humidity. The PDC lines were cultured according to standard operating procedures established by the NCI PDMR. All PDCs were thawed and cultured in Matrigel-coated flasks prepared with a working solution of 1X Ham's F-12 nutrient mix, without supplementation (Invitrogen, cat. 11765054), 100 U/mL penicillin-streptomycin (Invitrogen, cat. 15140122), and 2.5% Matrigel (Corning Inc., cat. 354248) for the first three passages. The 857933-349-R-J2-PDC line was cultured in 6C/Colon 1B media, which includes advanced DMEM/F-12 (Thermo Fisher Scientific, cat. 12634028), 10 mM HEPES (Thermo Fisher Scientific, cat. 15630080), 1X GlutaMAX supplement (Thermo Fisher Scientific, cat. 35050061), 0.1 mg/mL primocin (InvivoGen, cat. ant-pm-2), 10% defined fetal bovine serum, heat inactivated (HyClone Laboratories Inc., cat. SH30070.03HI), 50% L-WRN conditioned media (ATCC, cat. CRL-3276), 1.25 mM N-Acetyl-L-cysteine (Sigma-Aldrich, cat. A9165), 10 mM nicotinamide (Sigma-Aldrich, cat. N0636), 1X B-27 supplement (Thermo Fisher Scientific, cat. 17504044), 1X N-2 supplement (Thermo Fisher Scientific, cat. 17502048), 10 microM Y-27632 dihydrochloride (Tocris Bioscience, cat. 1254), and 50 ng/mL human EGF recombinant protein (Thermo Fisher Scientific, cat. PHG0311). The 485176-168-R4-J1-PDC line was cultured in Panc media, which includes all 6C/Colon 1B media components plus 100 ng/mL human FGF-10 (Thermo Fisher Scientific, cat. 100-26), 500 nM SB-431542 (Selleckchem, cat. S1067), and gastrin (Tocris, cat. 3006).
# […]
# [1] = curve of first compound, second compound 0.0316 µM
# [2] = curve of first compound, second compound 0.1 µM
# [3] = curve of first compound, second compound 0.316 µM
# [4] = curve of first compound, second compound 1 µM
# [5] = curve of first compound, second compound 3.16 µM
# [6] = curve of first compound, second compound 10 µM
# [7] = second compound 0.0316 µM, first compound 0.0316 µM
# [8] = second compound 0.0316 µM, first compound 0.1 µM
# [9] = second compound 0.0316 µM, first compound 0.316 µM
# [10] = second compound 0.0316 µM, first compound 1 µM
# [11] = second compound 0.0316 µM, first compound 3.16 µM
# [12] = second compound 0.0316 µM, first compound 10 µM
# [13] = second compound 0.1 µM, first compound 0.0316 µM
# [14] = second compound 0.1 µM, first compound 0.1 µM
# [15] = second compound 0.1 µM, first compound 0.316 µM
# [16] = second compound 0.1 µM, first compound 1 µM
# [17] = second compound 0.1 µM, first compound 3.16 µM
# [18] = second compound 0.1 µM, first compound 10 µM
# [19] = second compound 0.316 µM, first compound 0.0316 µM
# [20] = second compound 0.316 µM, first compound 0.1 µM
# [21] = second compound 0.316 µM, first compound 0.316 µM
# [22] = second compound 0.316 µM, first compound 1 µM
# [23] = second compound 0.316 µM, first compound 3.16 µM
# [24] = second compound 0.316 µM, first compound 10 µM
# [25] = second compound 1 µM, first compound 0.0316 µM
# [26] = second compound 1 µM, first compound 0.1 µM
# [27] = second compound 1 µM, first compound 0.316 µM
# [28] = second compound 1 µM, first compound 1 µM
# [29] = second compound 1 µM, first compound 3.16 µM
# [30] = second compound 1 µM, first compound 10 µM
# [31] = second compound 3.16 µM, first compound 0.0316 µM
# [32] = second compound 3.16 µM, first compound 0.1 µM
# [33] = second compound 3.16 µM, first compound 0.316 µM
# [34] = second compound 3.16 µM, first compound 1 µM
# [35] = second compound 3.16 µM, first compound 3.16 µM
# [36] = second compound 3.16 µM, first compound 10 µM
# [37] = second compound 10 µM, first compound 0.0316 µM
# [38] = second compound 10 µM, first compound 0.1 µM
# [39] = second compound 10 µM, first compound 0.316 µM
# [40] = second compound 10 µM, first compound 1 µM
# [41] = second compound 10 µM, first compound 3.16 µM
# [42] = second compound 10 µM, first compound 10 µM
# 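Note: spheroids exposed to compounds for seven days.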
structure (smiles),measurement,setting,value
CC1COCCN1c1cc(C2(S(C)(=N)=O)CC2)nc(-c2ccnc3[nH]ccc23)n1 (stereo not drawn) + Cc1cnc(CNC(=O)c2c(=O)c3ccc(N4CCCN(C)CC4)nc3n3c2sc2ccccc23)cn1,IC50,[1],2490 nM
same,IC50,[2],2190 nM
same,IC50,[3],5270 nM
same,IC50,[4],< 31.6 nM
same,IC50,[5],< 31.6 nM
same,IC50,[6],< 31.6 nM
same,"viability, T/C",[7],85.6%
same,"viability, T/C",[8],100%
same,"viability, T/C",[9],83.5%
same,"viability, T/C",[10],55.7%
same,"viability, T/C",[11],55%
same,"viability, T/C",[12],30.4%
same,"viability, T/C",[13],69%
same,"viability, T/C",[14],90.7%
same,"viability, T/C",[15],64.5%
same,"viability, T/C",[16],56.8%
same,"viability, T/C",[17],50.5%
same,"viability, T/C",[18],39.6%
same,"viability, T/C",[19],57.8%
same,"viability, T/C",[20],64.2%
same,"viability, T/C",[21],56.1%
same,"viability, T/C",[22],52.3%
same,"viability, T/C",[23],59.8%
same,"viability, T/C",[24],40.1%
same,"viability, T/C",[25],41.5%
same,"viability, T/C",[26],45.2%
same,"viability, T/C",[27],45.3%
same,"viability, T/C",[28],42.7%
same,"viability, T/C",[29],43.7%
same,"viability, T/C",[30],32.5%
same,"viability, T/C",[31],41.9%
same,"viability, T/C",[32],50.4%
same,"viability, T/C",[33],37.8%
same,"viability, T/C",[34],43.1%
same,"viability, T/C",[35],37.6%
same,"viability, T/C",[36],25.8%
same,"viability, T/C",[37],34.5%
same,"viability, T/C",[38],23.2%
same,"viability, T/C",[39],31.9%
same,"viability, T/C",[40],35.2%
same,"viability, T/C",[41],35.5%
same,"viability, T/C",[42],21.6%
C#Cc1c(F)ccc2cc(O)cc(-c3ncc4c(N5CC6CCC(C5)N6)nc(OCC56CCCN5CC(F)C6)nc4c3F)c12 (stereo not drawn) + CN(C)c1ccc(Nc2c3ccc(NC(=O)CCN4CCCC4)cc3nc3cc(NC(=O)CCN4CCCC4)ccc23)cc1,IC50,[1],1050 nM
same,IC50,[2],1690 nM
same,IC50,[3],1520 nM
same,IC50,[4],1780 nM
same,IC50,[5],1750 nM
same,IC50,[6],1120 nM
same,"viability, T/C",[7],101%
same,"viability, T/C",[8],84.6%
same,"viability, T/C",[9],68.1%
same,"viability, T/C",[10],51.5%
same,"viability, T/C",[11],32.5%
same,"viability, T/C",[12],14.4%
same,"viability, T/C",[13],109%
same,"viability, T/C",[14],105%
same,"viability, T/C",[15],78.2%
same,"viability, T/C",[16],63.9%
same,"viability, T/C",[17],36.1%
same,"viability, T/C",[18],16%
same,"viability, T/C",[19],87.7%
same,"viability, T/C",[20],108%
same,"viability, T/C",[21],85%
same,"viability, T/C",[22],61.5%
same,"viability, T/C",[23],31.1%
same,"viability, T/C",[24],20.1%
same,"viability, T/C",[25],104%
same,"viability, T/C",[26],82.1%
same,"viability, T/C",[27],90.4%
same,"viability, T/C",[28],58.1%
same,"viability, T/C",[29],38.7%
same,"viability, T/C",[30],17.6%
same,"viability, T/C",[31],89.3%
same,"viability, T/C",[32],85.8%
same,"viability, T/C",[33],92.3%
same,"viability, T/C",[34],61.9%
same,"viability, T/C",[35],35.5%
same,"viability, T/C",[36],14.4%
same,"viability, T/C",[37],92.5%
same,"viability, T/C",[38],77%
same,"viability, T/C",[39],68.5%
same,"viability, T/C",[40],55.1%
same,"viability, T/C",[41],30.1%
same,"viability, T/C",[42],7.21%
Cc1cnc(CNC(=O)c2c(=O)c3ccc(N4CCCN(C)CC4)nc3n3c2sc2ccccc23)cn1,"viability, T/C",compound 0.0316 µM,82.8% [middle of 12 runs]
same,"viability, T/C",compound 0.1 µM,66.4% [middle of 12 runs]
same,"viability, T/C",compound 0.316 µM,50.4% [middle of 12 runs]
same,"viability, T/C",compound 1 µM,44.4% [middle of 12 runs]
same,"viability, T/C",compound 3.16 µM,34.6% [middle of 12 runs]
CC(C)n1c(=O)n(C)c2cnc3cc(F)c(-c4ccc(OCCCN5CCCCC5)nc4)cc3c21,"viability, T/C",compound 0.0316 µM,108% and 84.2% and 93.7%
same,"viability, T/C",compound 0.1 µM,89% and 95.3% and 95.1%
same,"viability, T/C",compound 0.316 µM,116% and 97.8% and 99.7%
same,"viability, T/C",compound 1 µM,120% and 88% and 123%
same,"viability, T/C",compound 3.16 µM,123% and 107% and 119%
same,"viability, T/C",compound 10 µM,92.1% and 80.3% and 90.2%
same,IC50,curve of compound,> 10000 nM
CC1COCCN1c1cc(C2(S(C)(=N)=O)CC2)nc(-c2ccnc3[nH]ccc23)n1 (stereo not drawn),"viability, T/C",compound 0.0316 µM,92.8% and 89.6% and 108%
same,"viability, T/C",compound 0.1 µM,96% and 93.6% and 99.5%
same,"viability, T/C",compound 0.316 µM,107% and 102% and 114%
same,"viability, T/C",compound 1 µM,65.9% and 56.5% and 74.8%
same,"viability, T/C",compound 3.16 µM,34.9% and 32.8% and 40%
same,"viability, T/C",compound 10 µM,33% (2×) and 26.7%
same,IC50,curve of compound,1770 nM and 1320 nM and 2110 nM
